The results in this text go back to patent US11597728B2, “Monoacylglycerol lipase modulators” (Janssen Pharmaceutica NV, priority 2018, dated 2023).

SMILES strings stand for the structures.

For orientation: IC50 means the concentration at which inhibition is half-maximal. Lower therefore signals higher potency.

For the experiment, the target named is human MGL from HeLa cells (Homo sapiens (Human), UniProt Q99685). Description: In vitro MGL activity assay: cleavage of [glycerol-1,3-3H]-oleoyl glycerol, activated carbon filtration. The class given is biochemical.
Sequence of human MGL from HeLa cells (Q99685 whole entry): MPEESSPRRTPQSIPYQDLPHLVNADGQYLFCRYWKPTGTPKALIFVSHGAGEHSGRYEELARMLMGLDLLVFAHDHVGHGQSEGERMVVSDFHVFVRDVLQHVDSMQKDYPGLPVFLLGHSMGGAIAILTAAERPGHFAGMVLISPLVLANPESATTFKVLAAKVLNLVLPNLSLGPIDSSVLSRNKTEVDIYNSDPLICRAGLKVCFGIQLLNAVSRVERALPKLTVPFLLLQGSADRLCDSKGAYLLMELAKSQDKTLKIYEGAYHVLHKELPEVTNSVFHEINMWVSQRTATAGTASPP

For the compound `Cn1nc2c(c1-c1ccc(F)c(F)c1)C[C@H]1CCC[C@@H]2N1C(=O)c1ccccc1-n1nccn1` [Example 126, (2-(2H-1,2,3-Triazol-2-yl)phenyl)((5R,9S)-3-(3,4-difluorophenyl)-2-methyl-4,5,6,7,8,9-hexahydro-2H-5,9-epiminocycloocta[c]pyrazol-10-yl)methanone], the half-maximal inhibitory concentration (IC50) turned out to be 7.44 nM.
